Laboratory results as given in publication PMC8607422, “Development of a novel TLR8 agonist for cancer immunotherapy” (Molecular Biomedicine, 2020).
Where two headings read alike, the source gives them in different places.

Assays:
[1] = in vivo; set-up: species or system cynomolgus monkeys; conditions: cynomolgus, cynomolgus monkey, sc, 1 mg/kg
Procedure: To determine the in vivo pharmacokinetic profiles, the compounds were formulated with 11% captisol and then administered iv, ip, sc and po into Sprague Dawley rats or iv and sc into mice or cynomolgus monkeys, respectively. Blood samples were collected before dosing and 0.083 h, 0.25 h, 0.5 h, 1 h, 2 h, 4 h, 6 h, 8 h, 12 h and 24 h after dosing. Blood samples were collected in tubes containing K2EDTA. Plasma was isolated from the blood samples by centrifugation of the blood samples at 2400 × g for 5 min at 4°C. Plasma samples were measured using LC-MS/MS (Waters ACQUITY UPLC and TQ 6500+) to determine the concentration of compounds. The data was analyzed using WinNonlin 7.0 to calculate the PK parameters such as AUC0-t, AUC0-∞, MRT0-∞, Cmax, Tmax, t1/2 and F.

[2] = biological target: T1, hTLR4 (Homo sapiens, UniProt O00206+Q9Y6Y9); assay: HEK-Blue hTLR4 SEAP reporter agonist assay; assay type: cell-based; conditions: HEK-Blue hTLR4 cells, highest concentration 50 μM
T1 construct: host or cells: HEK-Blue hTLR4
T1 sequence (O00206 24-839): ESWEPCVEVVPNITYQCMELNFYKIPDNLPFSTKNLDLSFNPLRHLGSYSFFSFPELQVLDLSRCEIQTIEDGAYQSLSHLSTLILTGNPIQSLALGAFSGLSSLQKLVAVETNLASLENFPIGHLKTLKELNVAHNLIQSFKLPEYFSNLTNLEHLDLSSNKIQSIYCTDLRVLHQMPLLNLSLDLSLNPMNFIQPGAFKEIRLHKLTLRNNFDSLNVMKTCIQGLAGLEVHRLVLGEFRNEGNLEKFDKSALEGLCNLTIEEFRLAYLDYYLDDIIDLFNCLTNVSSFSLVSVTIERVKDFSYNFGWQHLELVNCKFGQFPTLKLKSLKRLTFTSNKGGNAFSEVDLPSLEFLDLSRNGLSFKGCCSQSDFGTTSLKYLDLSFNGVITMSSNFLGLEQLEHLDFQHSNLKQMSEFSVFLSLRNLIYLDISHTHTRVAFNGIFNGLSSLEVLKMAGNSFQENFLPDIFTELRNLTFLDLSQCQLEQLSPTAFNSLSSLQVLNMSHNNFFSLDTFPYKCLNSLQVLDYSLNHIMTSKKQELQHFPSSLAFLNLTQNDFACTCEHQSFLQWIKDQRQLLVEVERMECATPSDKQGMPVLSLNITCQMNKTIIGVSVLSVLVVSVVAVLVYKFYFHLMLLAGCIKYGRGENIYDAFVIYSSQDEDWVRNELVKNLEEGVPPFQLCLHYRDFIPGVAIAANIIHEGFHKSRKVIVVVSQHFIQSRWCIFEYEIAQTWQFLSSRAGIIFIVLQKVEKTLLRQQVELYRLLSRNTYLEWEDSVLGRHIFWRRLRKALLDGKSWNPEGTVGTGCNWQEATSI
T1 sequence (Q9Y6Y9 17-160 limits assumed): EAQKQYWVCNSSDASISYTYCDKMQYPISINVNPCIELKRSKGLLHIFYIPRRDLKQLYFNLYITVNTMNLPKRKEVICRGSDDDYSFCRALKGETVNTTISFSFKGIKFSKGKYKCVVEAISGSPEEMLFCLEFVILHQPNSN
Text: HEK-Blue™ hTLR4, 7, 8 and 9 cell lines were purchased from InvivoGen (Hong Kong). The cells express the human TLR gene and NF-κB/AP-1-inducible SEAP (secreted embryonic alkaline phosphatase) reporter gene. SEAP levels produced upon TLR stimulation can be determined by QUANTI-Blue™. In the cell-based assay, the main reagents used were QUANTI-Blue™ (InvivoGen) and ATPlite 1 Step (Perkin Elmer). The main instruments used were the microplate reader SpectraMax 340PC (Molecular Device) and Envision (Perkin Elmer). Motolimod and DN052 were synthesized in house. […] The compounds were in 10 mM stock solution in DMSO and stored at − 20°C. The compounds were serially diluted in the concentration range from 0.5 nM to 15 μM (up to 50 μM in the hTLR4, hTLR7 and hTLR9 assays) and added to 96-well plates. DMSO was used as the negative control. LPS-EK, R848, motolimod and ODN2006 were used as the positive control for TLR4, 7, 8 and 9, respectively. The cells were cultured and treated with the compounds at 37°C, 5%CO2 for 24 h. […] After 1.5 h of incubation, the optical density was measured using the spectrophotometer at 650 nm in the microplate reader of SpectraMax 340PC. The cell viability of each well was determined using ATPlite 1 Step following the manufacturer’s instruction. The luminescence signal in each well of plates was measured in the microplate reader of Envision.

[3] = tested on: HL-60 human acute promyelocytic leukemia (AML) cells; assay: Human HL-60 AML mouse xenograft model; assay type: in vivo; conditions: HL-60 AML xenograft, NOD/SCID mice, 1.3 mg/kg sc once a week
Procedure: All the animal experiments were conducted following Association for Assessment and Accreditation of Laboratory Animal Care (AAALAC)‘s guideline. The animal protocols were approved by the Institutional Animal Care and Use Committee (IACUC). Cell lines were purchased from credible vendors including ATCC. After tumor cell inoculation, the animals were checked daily for morbidity and mortality. At the time of routine monitoring, the animals were checked for any effects of tumor growth and treatment on the animals’ well-being such as mobility, food and water consumption, body weight gain/loss, matting and any other abnormalities. Clinical observations were recorded. Tumor volumes were measured twice a week in two dimensions using a caliper and the volume was expressed in mm^3 using the formula: V = 0.5 a × b^2 where a and b are the long and short diameters of the tumor, respectively. The procedures of dosing as well as tumor and body weight measurement were conducted in a laminar flow cabinet.
For HL-60 experiment, HL-60 human acute promyelocytic leukemia (AML) cells were cultured in vitro in suspension in RPMI1640 medium supplemented with 10% fetal bovine serum and 1% penicillin/streptomycin at 37°C in an atmosphere of 5% CO2 in air. The tumor cells were routinely passaged twice per week. The cells growing in the exponential growth phase were harvested and counted for tumor inoculation. […]

[4] = tested on: HL-60 cells; assay: Nitroblue Tetrazolium (NBT) cell differentiation assay; assay type: cell-based; conditions: Homo sapiens, unit from concentration axis
Text: Supplementary file 43556_2020_7_MOESM1_ESM.pdf: Additional file 1: Supplementary Fig. 1. […] Suplementary Fig. 2. […] Supplementary Fig. 3. Nitroblue Tetrazolium (NBT) cell differentiation assay. […] Supplementary Fig. 4. Representative data from human PBMC assay. […] Similar results were obtained from two different donors.

[5] = tested on: human peripheral blood mononuclear cells (PBMCs); assay: Ex vivo human PBMC cytokine induction assay; assay type: cell-based; conditions: 24 h
Procedure: Briefly, PBMCs were isolated from fresh human blood (Chempartner, Shanghai, China). 2 × 10^5/100 μL/well hPBMCs were plated on 96-well cell culture plates. Serial dilutions of compounds with concentration range from 2 nM to 30 μM were added in duplicate wells. LPS was included as a control. The plate was incubated in a 37°C, 5% CO2 incubator for 24 h. The supernatant was harvested for cytokine detection using MILLIPLEX MAP Human Cytokine/Chemokine Magnetic Bead Panel - Immunology Multiplex Assay (Millipore) following the manufacturer’s protocol. Cytokines including TNF-α, IFN-α2, IL-1α, IL-1β, IL-6, IL-8, IL-10, IL-12p40, IL-12p70, MIP-1α, MIP-1β, G-CSF and IFN-γ were measured.

## CCCN(CCC)C(=O)C1=Cc2ccc(-c3ccc(C(=O)N4CCCC4)cc3)cc2N=C(N)C1 [Motolimod, motolimod]
[1]
  AUC(0-inf): 0.27 µg·h/mL
  AUC(0-t): 0.27 µg·h/mL
  Cmax: 0.08 µg/mL
  MRT inf: 2.95 h
  Tmax: 2 h
  half-life: 1.43 h
[2]
  EC50: > 50 µM
[3]
  tumor growth inhibition (TGI) rate: 17%
[4]
  EC50: 1.43 µM
[5]; Donor 1, 24 h, read-out: EC50 G-CSF induction
  EC50: 0.841 µM
[5]; Donor 1, 24 h, read-out: EC50 IFN-α2 induction
  EC50: 1.33 µM
[5]; Donor 1, 24 h, read-out: EC50 IFN-γ induction
  EC50: 4.16 µM
[5]; Donor 1, 24 h, read-out: EC50 IL-1α induction
  EC50: 0.849 µM
[5]; Donor 1, 24 h, read-out: EC50 IL-1β induction
  EC50: 0.665 µM
[5]; Donor 1, 24 h, read-out: EC50 IL-6 induction
  EC50: 0.424 µM
[5]; Donor 1, 24 h, read-out: EC50 IL-8 induction
  EC50: 0.504 µM
[5]; Donor 1, 24 h, read-out: EC50 IL-10 induction
  EC50: 0.304 µM
[5]; Donor 1, 24 h, read-out: EC50 IL-12(p40) induction
  EC50: 0.447 µM
[5]; Donor 1, 24 h, read-out: EC50 IL-12(p70) induction
  EC50: 0.285 µM
[5]; Donor 1, 24 h, read-out: EC50 MIP-1α induction
  EC50: 0.277 µM
[5]; Donor 1, 24 h, read-out: EC50 MIP-1β induction
  EC50: 0.277 µM
[5]; Donor 1, 24 h, read-out: EC50 TNF-α induction
  EC50: 0.321 µM
[5]; Donor 2, 24 h, read-out: EC50 G-CSF induction
  EC50: 0.461 µM
[5]; Donor 2, 24 h, read-out: EC50 IFN-α2 induction
  EC50: 0.344 µM
[5]; Donor 2, 24 h, read-out: EC50 IFN-γ induction
  EC50: 1.66 µM
[5]; Donor 2, 24 h, read-out: EC50 IL-1α induction
  EC50: 0.348 µM
[5]; Donor 2, 24 h, read-out: EC50 IL-1β induction
  EC50: 0.556 µM
[5]; Donor 2, 24 h, read-out: EC50 IL-6 induction
  EC50: 0.439 µM
[5]; Donor 2, 24 h, read-out: EC50 IL-8 induction
  EC50: 0.502 µM
[5]; Donor 2, 24 h, read-out: EC50 IL-10 induction
  EC50: 0.191 µM
[5]; Donor 2, 24 h, read-out: EC50 IL-12(p40) induction
  EC50: 0.344 µM
[5]; Donor 2, 24 h, read-out: EC50 IL-12(p70) induction
  EC50: > 30 µM
[5]; Donor 2, 24 h, read-out: EC50 MIP-1α induction
  EC50: 0.208 µM
[5]; Donor 2, 24 h, read-out: EC50 MIP-1β induction
  EC50: 0.248 µM
[5]; Donor 2, 24 h, read-out: EC50 TNF-α induction
  EC50: 0.317 µM
